{
  "source": "patent US20250295668A1",
  "about": "“METHODS FOR INDUCING COLANIC ACID BIOSYNTHESIS” (priority 2024, published 2025)",
  "key": {"E. coli [1]": {"system": "E. coli", "test": "Bacterial growth under low-dose cephaloridine", "format": "cell-based", "conditions": "low-dose cephaloridine vs vehicle-treated E. coli"}, "MG1655 E. coli": {"system": "MG1655 E. coli", "test": "Colanic acid production in MG1655 commensal E. coli", "format": "cell-based", "conditions": "MG1655, low-dose cephaloridine, 37° C.", "method": "The desired bacterial strain was first inoculated and cultured in M9 minimum medium overnight at 37° C. to obtain the seeding culture. The OD 600 was measured, and the seeding bacteria were diluted to OD600=0.02 in M9 minimum medium for another 16 hours. After the incubation, bacterial cultures were collected in 50 mL tubes, spun down at 4,000 g at 4° C. for 30 min, filtered, and 25 mL of supernatant was collected per 50 ml conical tube. Ice-cold 100% ethanol (EtOH) was added to make a final 50% EtOH solution for precipitation, and the mixture was kept at 4° C. overnight. Once precipitation occurred, the liquid was carefully removed after centrifugation at 4,000 g at 4° C. for 50 min. The pellet was washed once with cold 80% EtOH and then air-dried in a hood. The pellet from every 50 mL culture was resuspended in 500 μL distilled H2O. The solution was sonicated for 60 minutes at 37° C., followed by centrifugation at 4000 g at 4° C. for 10 minutes. […] The fucose quantification assay was then carried out using a K-FUCOSE kit (Megazyme) according to the manufacturer's protocol.\nMG1655, a human-derived commensal K12 strain, was treated with a low dose of cephaloridine at 37° C., which induced colanic acid production (FIG. 3A). […] The luminal content of mice ileum was harvested after 3 hours of cephaloridine administration and were imaged for fluorescence. […]"}, "cps promoter": {"system": "cps promoter", "test": "cps G-R reporter bacteria imaging in vitro (GFP-to-RFP ratio)", "format": "cell-based, E. coli", "conditions": "low-dose cephaloridine, cultured at 37° C.", "method": "For high-resolution imaging, rph1 ilvG rfb-50 attL (Psyn135::mcherry <FRT>) attHKPR218 (cps G-R reporter strain), a genetically modified strain derived from MG1655 (genotype rph1 ilvG rfb-50), was generated. pPR218, integrated at the HK site, encodes Pcps::sfGFP and chloramphenicol resistance.\nIn vitro imaging: The cps G-R reporter strain was cultured in M9 minimal medium. Bacteria culture was harvested at an OD600 of 0.6. For bacteria imaging, 1 μL of the culture was loaded onto a 1% low-melt agarose pad made with M9 medium [PMID: 23680982].\nMG1655, a human-derived commensal K12 strain, was treated with a low dose of cephaloridine at 37° C., which induced colanic acid production (FIG. 3A). […] To determine whether cephaloridine activates cps expression in a commensal bacterium in a mammalian host, MG1655 was engineered as shown in FIG. 3C to express GFP under the control of the cps promoter and to constitutively express RFP under a synthetic promoter syn135, resulting in the cps G-R reporter strain. […] The luminal content of mice ileum was harvested after 3 hours of cephaloridine administration and were imaged for fluorescence. […]"}, "[2]": {"system": "cps operon in commensal E. coli", "test": "cps G-R reporter bacteria from mouse ileum, in vivo imaging (GFP-to-RFP ratio)", "design": "species or system C57BL6 mice", "conditions": "for increase in GFP-to-RFP ratio: oral gavage plus drinking water, 3 hours, ileum", "protocol": "In vivo imaging: Co-housed female C57BL6 mice received cps G-R reporter E. coli at 1×10^8 CFU per 100 mL through distilled drinking water. The bacteria-containing water was prepared and replaced daily for three days continuously. […] Luminal content from the ileum was collected and processed for imaging bacteria from in vivo samples immediately after euthanasia as previously described [PMID: 34428120]. In brief, the ileum sections were collected and then finely minced by a pair of iris scissors in 2 mL 1×PBS. Samples were then vortexed for 1 minute and filtered with a sterile cell strainer (40 μm) to remove the tissue debris. The microbiota was washed 3 times with 1.5 mL PBS by centrifugation (15,000×g, 3 min) and then resuspended in 0.1 mL PBS for imaging.\nThe cps G-R reporter strain was introduced to wild-type C57B6 mice through drinking water, followed by cephaloridine administration through a single-dose oral gavage and cephaloridine-containing water for 3 hours, which allowed for sufficient intestinal transit time [PMID: 23915679] and E. coli turnover time [PMID: 26392213] for optimal dosing (FIG. 3E). […] The luminal content of mice ileum was harvested after 3 hours of cephaloridine administration and were imaged for fluorescence."}, "E. coli deletion mutants": {"system": "E. coli deletion mutants", "test": "Colanic acid measurement in E. coli deletion mutants", "format": "cell-based", "conditions": "low-dose cephaloridine", "method": "For colanic acid quantification, E. coli Keio mutants and the parental strain BW25113 were cultured overnight at 37° C. in M9 minimum medium [PMID: 28436966]. Bacteria were then removed by centrifugation and filtered for colanic acid measurement.\nThe desired bacterial strain was first inoculated and cultured in M9 minimum medium overnight at 37° C. to obtain the seeding culture. The OD 600 was measured, and the seeding bacteria were diluted to OD600=0.02 in M9 minimum medium for another 16 hours. After the incubation, bacterial cultures were collected in 50 mL tubes, spun down at 4,000 g at 4° C. for 30 min, filtered, and 25 mL of supernatant was collected per 50 ml conical tube. Ice-cold 100% ethanol (EtOH) was added to make a final 50% EtOH solution for precipitation, and the mixture was kept at 4° C. overnight. Once precipitation occurred, the liquid was carefully removed after centrifugation at 4,000 g at 4° C. for 50 min. The pellet was washed once with cold 80% EtOH and then air-dried in a hood. The pellet from every 50 mL culture was resuspended in 500 μL distilled H2O. The solution was sonicated for 60 minutes at 37° C., followed by centrifugation at 4000 g at 4° C. for 10 minutes. A 200 μL sample was mixed with 30 μL hydrochloric acid (320331-500 mL, Sigma-Aldrich) and boiled for 2 hours. Subsequently, 60 μL 5M NaOH and 150 μL NaHCO3/NaOH buffer were added to reach a pH of 6-8, calibrated by 1M HCl or NaOH solutions. The fucose quantification assay was then carried out using a K-FUCOSE kit (Megazyme) according to the manufacturer's protocol.\nThe molecular mechanism behind the induction of colanic acid by low-dose cephaloridine was investigated. It was suspected that regulation of the cps operon was centered on the well-known RCS two-component system. Canonically, the RcsC sensor histidine kinase situated in the inner membrane autophosphorylates in response to environmental cues, then the RcsD phosphotransferase transmits the phosphoryl group to the cytosolic response regulator RcsB, which functions as a transcription factor to up-regulate the cps operon, with RcsA interacting with RcsB to enhance its binding with the promoter, thereby stimulating transcriptional activation (FIG. 4A). To assess the necessity of the RCS system in colanic acid induction by low-dose cephaloridine, the E. coli deletion mutants of rcsA, rcsB, rcsC, and rcsD were treated with cephaloridine and colanic acid production was measured in their respective culture mediums.\nConsidering β-lactam antibiotics show preferential affinities to various penicillin-binding proteins (PBPs) [PMID: 25733506] [PMID: 1103132], the role of these inner membrane proteins in colanic acid induction upon low-dose cephaloridine treatment was determined. […] (FIG. 5A).\nTo investigate potential mediation of colanic acid induction by these kinases, E. coli deletion mutants of btsS, glrK, and zraS were treated with low-dose cephaloridine and colanic acid levels in their respective culture mediums were measured. Due to slow growth in the M9 culture medium, the rstB deletion mutant could not be evaluated."}, "E. coli [3]": {"system": "E. coli", "conditions": "previously reported, cited from earlier work"}, "[4]": {"conditions": "PMID 9165537; cited from earlier work"}},
  "note": "Entries after “also recorded” stand apart in the source; their conditions may differ. Where two headings read alike, the source gives them in different places.",
  "data": [
    {"smiles": "O=C(Cc1cccs1)N[C@@H]1C(=O)N2C(C(=O)[O-])=C(C[n+]3ccccc3)CS[C@H]12", "note": "[cephaloridine]", "values": [
      {"measurement": "effect on bacterial growth", "setting": "E. coli [1]", "result": "did not hinder bacteria growth; also recorded: does not alter bacterial growth"},
      {"measurement": "colanic acid production increase", "setting": "MG1655 E. coli", "result": 3.2, "unit": "fold"},
      {"measurement": "increase in GFP-to-RFP intensity ratio", "setting": "cps promoter", "result": 20, "unit": "%"},
      {"measurement": "cps operon induction in the mouse intestine", "setting": "[2]; 4 μg/mL dose", "result": "induced the cps operon"},
      {"measurement": "increase in GFP-to-RFP ratio", "setting": "[2]; 4 μg/mL", "result": 13, "unit": "%"},
      {"measurement": "cps operon induction in the mouse intestine", "setting": "[2]; 8 μg/mL dose", "result": "failed to exert this effect"},
      {"measurement": "increase in GFP-to-RFP ratio", "setting": "[2]; 8 μg/mL", "result": "no such increase"},
      {"measurement": "amount of colanic acid vs treated wild-type strain", "setting": "E. coli deletion mutants; DacB deletion mutant (PBP4)", "result": "even greater amount of colanic acid than the wild-type strain"},
      {"measurement": "induction of colanic acid", "setting": "E. coli deletion mutants; DacB deletion mutant (PBP4)", "result": "did induce colanic acid production"},
      {"measurement": "induction of colanic acid", "setting": "E. coli deletion mutants; mrcA deletion mutant (PBP1a)", "result": "failed to induce colanic acid"},
      {"measurement": "induction of colanic acid", "setting": "E. coli deletion mutants; rcsA deletion mutant", "result": "completely abolished the induction of colanic acid"},
      {"measurement": "induction of colanic acid", "setting": "E. coli deletion mutants; rcsB deletion mutant", "result": "completely abolished the induction of colanic acid"},
      {"measurement": "induction of colanic acid", "setting": "E. coli deletion mutants; rcsC deletion mutant", "result": "no impact on the induction of colanic acid"},
      {"measurement": "induction of colanic acid", "setting": "E. coli deletion mutants; rcsD deletion mutant", "result": "no impact on the induction of colanic acid"},
      {"measurement": "induction of colanic acid", "setting": "E. coli deletion mutants; zraS deletion mutant", "result": "suppressed the induction of colanic acid"},
      {"measurement": "MIC", "setting": "E. coli [3]; PMID 380457", "result": 2, "unit": "µg/mL"},
      {"measurement": "MIC", "setting": "E. coli [3]; PMID 9371340", "result": 4, "unit": "µg/mL"},
      {"measurement": "absorption after oral administration", "setting": "[4]", "result": "poorly absorbed; also recorded: near-zero absorption"},
      {"measurement": "oral bioavailability", "setting": "[4]", "result": "extremely low oral bioavailability"}
    ]}
  ]
}
